For experiment [1], the system named is NUGC4 (P53 WT). The experiment in a line: Cell viability assay (CellTiter-Glo, 6 days), NUGC4. It counts as cell-based. Conditions: Homo sapiens, NUGC-4, 144 h; cell viability, 6 days, CellTiter-Glo; read-out: NUGC4 (P53 WT) IC50. An outline of the steps:
(§1)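 After a 6-day compound exposure following overnight plating, ATP luminescence (CellTiter-Glo) gave percent viability relative to DMSO-treated cells and cell-free medium controls. IC50 = concentration at 50% viability, from 4-parameter logistic or Excel fit.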

Experiment [2] relates to NUGC-3_P53_Luc single clonal cell line (p53 Y220C). Kind of experiment: Reporter gene assay (p53 RE luciferase). Conditions: Homo sapiens, luciferase reporter, 6 hours, normalized to Ref-1a (10 μM) high control, read-out: p53(Y220C)_NUGC-3 EC50. It counts as cell-based. An outline of the steps:
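Luminescence normalised to DMSO-only (0%) and 10 μM Ref-1a (100%) wells gives % activity, fitted by 4-parameter logistic or Excel to yield EC50 at 50%. Reporter line: NUGC-3 with p53 response element-luc2P, compound-treated 6 h at 37 °C.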

Experiment [3] deals with NUGC3 (P53 Y220C). Kind of experiment: Cell viability assay (CellTiter-Glo, 6 days), NUGC3. It counts as cell-based. Conditions: Homo sapiens, NUGC-3, 144 h; cell viability, 6 days, CellTiter-Glo; read-out: NUGC3 (P53 Y220C) IC50. An outline of the steps:
as §1

Experiment [4] concerns the target T1, His-p53 Y220C (94-294) protein (Homo sapiens, UniProt P04637, Y220C).
T1 construct: His-p53 Y220C (94-294) protein
Kind of experiment: In vitro DNA binding assay (HTRF). Conditions: % activation normalized to 2 μM Ref-1a high control. It counts as biochemical.

pEC50, pIC50: −log10 of the molar value. Like-named read-outs stand apart in the source and are kept apart here.

Consider `CN1CC[C@@H](Nc2cccc3c(CC(F)(F)F)c(C#CCNc4ccc(P(C)(C)=O)cc4C(N)=O)sc23)[C@@H](F)C1` [Example 199, 5-(dimethylphosphoryl)-2-((3-(7-(((3S,4R)-3-fluoro-1-methylpiperidin-4-yl)amino)-3-(2,2,2-trifluoroethyl)benzo[b]thiophen-2-yl)prop-2-yn-1-yl)amino)benzamide], for which the results for the pIC50 in experiment [1] and in experiment [3] were 4.31 and 6.44, respectively. Moreover, the pEC50 in experiment [2] (NUGC-3) was 7.22; in experiment [4], 7.57.
On the same counts, the results for `COc1cc(P(C)(C)=O)ccc1NCC#Cc1sc2c(NC3CCN(CCCF)CC3)cccc2c1CC(F)(F)F` [Example 205, (4-((3-(7-((1-(3-fluoropropyl)piperidin-4-yl)amino)-3-(2,2,2-trifluoroethyl)benzo[b]thiophen-2-yl)prop-2-yn-1-yl)amino)-3-methoxyphenyl)dimethylphosphine oxide] are 5.39, 5.88, 6.26 and 7.19.
For `COc1nc(P(C)(C)=O)ncc1NCC#Cc1sc2c(N[C@@H]3CCN(C)C[C@@H]3F)cccc2c1CC(F)(F)F` [Example 208, (5-((3-(7-(((3S,4R)-3-fluoro-1-methylpiperidin-4-yl)amino)-3-(2,2,2-trifluoroethyl)benzo[b]thiophen-2-yl)prop-2-yn-1-yl)amino)-4-methoxypyrimidin-2-yl)dimethylphosphine oxide], the pIC50 in experiment [1] is 4.86; in experiment [3] it was 5.67. Further, the pEC50 was 6.15 in experiment [2] (NUGC-3) and 7.37 in experiment [4].
As to `[2H]C([2H])([2H])N1CC[C@@H](Nc2cccc3c(CC(F)(F)F)c(C#CCNc4ccc(P(C)(C)=O)cc4OC)sc23)[C@@H](F)C1` [Example 210, (4-((3-(7-(((3S,4R)-3-fluoro-1-(methyl-d3)piperidin-4-yl)amino)-3-(2,2,2-trifluoroethyl)benzo[b]thiophen-2-yl)prop-2-yn-1-yl)amino)-3-methoxyphenyl)dimethylphosphine oxide], the figures for the pIC50 in experiment [1] and in experiment [3] were 4.92 and 5.89, respectively. In addition, the pEC50 in experiment [2] (NUGC-3) was 7.52; in experiment [4], 7.80.
In the case of `CN1CC[C@@H](Nc2cccc3c(CC(F)(F)F)c(C#CCNc4ccc(P(C)(C)=O)cc4C#N)sc23)[C@@H](F)C1` [Example 211, 5-(dimethylphosphoryl)-2-((3-(7-(((3S,4R)-3-fluoro-1-methylpiperidin-4-yl)amino)-3-(2,2,2-trifluoroethyl)benzo[b]thiophen-2-yl)prop-2-yn-1-yl)amino)benzonitrile], the pIC50 in experiment [1] was 4.95; in experiment [3], 5.97. Besides, the pEC50 in experiment [2] (NUGC-3, 6 h) is 6.66; in experiment [4] it was 7.28.
`CN1CC[C@@H](Nc2cccc3c(CC(F)(F)F)c(C#CCNc4ccc(P(C)(C)=O)cc4-c4ncon4)sc23)[C@@H](F)C1` [Example 213, (4-((3-(7-(((3S,4R)-3-fluoro-1-methylpiperidin-4-yl)amino)-3-(2,2,2-trifluoroethyl)benzo[b]thiophen-2-yl)prop-2-yn-1-yl)amino)-3-(1,2,4-oxadiazol-3-yl)phenyl)dimethylphosphine oxide]: the pIC50 in experiment [1] was 5.02; in experiment [3], 6.43. Moreover, the pEC50 in experiment [2] (NUGC-3) was 6.66; in experiment [4], 7.24.
As to `CN1CC[C@@H](Nc2cccc3c(CC(F)(F)F)c(C#CCNc4ccc(P(C)(C)=O)cc4-c4cnco4)sc23)[C@@H](F)C1` [Example 214, (4-((3-(7-(((3S,4R)-3-fluoro-1-methylpiperidin-4-yl)amino)-3-(2,2,2-trifluoroethyl)benzo[b]thiophen-2-yl)prop-2-yn-1-yl)amino)-3-(oxazol-5-yl)phenyl)dimethylphosphine oxide], the pIC50 in experiment [1] was 4.86; in experiment [3], 6.42. The pEC50 in experiment [2] (NUGC-3, 6 h) was 7.00; in experiment [4] it was 7.42.

For the origin of these results see US20240400591A1 (Jacobio Pharmaceuticals Co., Ltd., priority 2021, published 2024).
